Assay results published in ChEMBL document CHEMBL4304747, “Structural Tailoring of a Novel Fluorescent IRE-1 RNase Inhibitor to Precisely Control Its Activity” (J Med Chem, 2019).
Calls of active or inactive are those of the source. No cut-off for these calls is given here.

Tests used:
[1] = biological target: Serine/threonine-protein kinase/endoribonuclease IRE1 (Mus musculus) (UniProt Q9EQY0); assay: (§1) Binding affinity to IRE1 in mouse 5TGM1 cells assessed as inhibition of IRE1/XBP1 pathway activation by measuring reduction in XBP1s expression at 10 uM measured up to 24 hrs by immunoblot analysis; type: cell-based
Homo sapiens [2] = species: Homo sapiens; assay: Cytotoxicity against human WaC3 cells assessed as growth inhibition at 20 uM measured after 3 days by XTT assay; type: functional, cell-based
[3] = biological target: Serine/threonine-protein kinase/endoribonuclease IRE1 (Mus musculus) (UniProt Q9EQY0); assay: Binding affinity to IRE1 in mouse 5TGM1 cells assessed as inhibition of IRE1/XBP1 pathway activation by measuring reduction in XBP1s expression at 10 uM measured after 3 days by immunoblot analysis; type: cell-based
[4] = biological target: Serine/threonine-protein kinase/endoribonuclease IRE1 (Mus musculus) (UniProt Q9EQY0); assay: Binding affinity to IRE1 in mouse 5TGM1 cells assessed as inhibition of IRE1/XBP1 pathway activation by measuring reduction in XBP1s expression at 2.5 uM measured up to 4 hrs by immunoblot analysis; type: cell-based
[5] = Stability in PBS/DMSO assessed as change in fluorescence intensity at 10 uM; type: physicochemical; settings: buffer
Homo sapiens [6] = species: Homo sapiens; assay: Cytotoxicity against human WaC3 cells assessed as growth inhibition at 20 uM measured after 1 day by XTT assay; type: functional, cell-based
[7] = biological target: Serine/threonine-protein kinase/endoribonuclease IRE1 (Mus musculus) (UniProt Q9EQY0); assay: Binding affinity to IRE1 in mouse 5TGM1 cells assessed as inhibition of IRE1/XBP1 pathway activation by measuring reduction in XBP1s expression at 10 uM measured after 2 days by immunoblot analysis; type: cell-based
[8] = Stability in PBS/DMSO assessed as increase in fluorescence intensity at 10 uM; type: physicochemical; settings: buffer
[9] = Stability in PBS/DMSO assessed as increase in fluorescence intensity at 10 uM at 365 nm light illumination by fluorescence imaging analysis
5TGM1 [10] = assay: Cytotoxicity against mouse 5TGM1 cells assessed as growth inhibition at 20 uM measured after 3 days by XTT assay; type: functional, cell-based
5TGM1 [11] = assay: Cytotoxicity against mouse 5TGM1 cells assessed as growth inhibition at 20 uM measured after 4 days by XTT assay; type: functional, cell-based
[12] = Drug metabolism in RPMI media assessed as hydrolysis at measured up to 25 hrs by HPLC analysis
[13] = Stability in PBS/DMSO assessed as change in fluorescence intensity at 10 uM at 460 nm; type: physicochemical; settings: buffer
[14] = biological target: Serine/threonine-protein kinase/endoribonuclease IRE1 (Mus musculus) (UniProt Q9EQY0); assay: Binding affinity to IRE1 in mouse 5TGM1 cells assessed as inhibition of IRE1/XBP1 pathway activation by measuring reduction in XBP1s expression at 5 uM measured after 24 hrs by immunoblot analysis; type: cell-based
[15] = Stability in PBS/DMSO assessed as compound decomposition by measuring decrease in fluorescence intensity at 10 uM measured after 48 hrs; type: physicochemical; settings: read-out: Drug degradation
[16] = Drug metabolism in RPMI media assessed as 1,3-dioxane acetal hydrolysis measured after 96 hrs by HPLC analysis
[17] = Drug metabolism in pH 7.4 PBS/DMSO assessed as 1,3-dioxane acetal hydrolysis measured after 48 hrs by HPLC analysis
[18] = biological target: Serine/threonine-protein kinase/endoribonuclease IRE1 (Mus musculus) (UniProt Q9EQY0); assay: as §1, with “uM preincubated for 4 hrs followed by three times compound washout and subsequent 1 mW/cm2 UV irradiation for 10 mins” for “uM”, “after 8” for “up to 24”; type: cell-based
[19] = biological target: Serine/threonine-protein kinase/endoribonuclease IRE1 (Mus musculus) (UniProt Q9EQY0); assay: Binding affinity to IRE1 in LPS-stimulated mouse primary B cells assessed as inhibition of IRE1/XBP1 pathway activation by measuring reduction in XBP1s expression at 2.5 to 5 uM measured after 2 hrs by immunoblot analysis
[20] = Prodrug conversion in cytoplasm of mouse 5TGM1 cells assessed as DF07 formation by measuring increase in fluorescence intensity at 10 uM treated for 4 hrs measured 10 secs post irradiation with 50 mW DAPI filtered diode laser by confocal microscopic analysis; type: ADME, subcellular; settings: 5tgm1, 4 h
[21] = Prodrug conversion in DMSO/PBS solution assessed as DF07 formation by measuring increase in fluorescence intensity at 10 uM irradiated with 1 mW/cm2 UV light relative to control; type: ADME
[22] = biological target: Serine/threonine-protein kinase/endoribonuclease IRE1 (Mus musculus) (UniProt Q9EQY0); assay: Binding affinity to IRE1 in mouse 5TGM1 cells assessed as inhibition of IRE1/XBP1 pathway activation by measuring reduction in XBP1s expression at 10 uM irradiated with 1 mW/cm2 UV light for up to 10 mins and measured after 4 hrs by immunoblot analysis; type: cell-based
[23] = Stability in RPMI media measured after 96 hrs by HPLC analysis; type: physicochemical
[24] = biological target: Serine/threonine-protein kinase/endoribonuclease IRE1 (Mus musculus) (UniProt Q9EQY0); assay: Binding affinity to IRE1 in mouse 5TGM1 cells assessed as inhibition of IRE1/XBP1 pathway activation by measuring reduction in XBP1s expression at 10 uM measured after 4 hrs by immunoblot analysis; type: cell-based
[25] = Stability in pH 7.4 PBS/DMSO measured after 48 hrs by HPLC analysis; type: physicochemical; settings: buffer, pH 7.4, 48 h

Serine/threonine-protein kinase/endoribonuclease IRE1 (Mus musculus), sequence (Q9EQY0 whole entry): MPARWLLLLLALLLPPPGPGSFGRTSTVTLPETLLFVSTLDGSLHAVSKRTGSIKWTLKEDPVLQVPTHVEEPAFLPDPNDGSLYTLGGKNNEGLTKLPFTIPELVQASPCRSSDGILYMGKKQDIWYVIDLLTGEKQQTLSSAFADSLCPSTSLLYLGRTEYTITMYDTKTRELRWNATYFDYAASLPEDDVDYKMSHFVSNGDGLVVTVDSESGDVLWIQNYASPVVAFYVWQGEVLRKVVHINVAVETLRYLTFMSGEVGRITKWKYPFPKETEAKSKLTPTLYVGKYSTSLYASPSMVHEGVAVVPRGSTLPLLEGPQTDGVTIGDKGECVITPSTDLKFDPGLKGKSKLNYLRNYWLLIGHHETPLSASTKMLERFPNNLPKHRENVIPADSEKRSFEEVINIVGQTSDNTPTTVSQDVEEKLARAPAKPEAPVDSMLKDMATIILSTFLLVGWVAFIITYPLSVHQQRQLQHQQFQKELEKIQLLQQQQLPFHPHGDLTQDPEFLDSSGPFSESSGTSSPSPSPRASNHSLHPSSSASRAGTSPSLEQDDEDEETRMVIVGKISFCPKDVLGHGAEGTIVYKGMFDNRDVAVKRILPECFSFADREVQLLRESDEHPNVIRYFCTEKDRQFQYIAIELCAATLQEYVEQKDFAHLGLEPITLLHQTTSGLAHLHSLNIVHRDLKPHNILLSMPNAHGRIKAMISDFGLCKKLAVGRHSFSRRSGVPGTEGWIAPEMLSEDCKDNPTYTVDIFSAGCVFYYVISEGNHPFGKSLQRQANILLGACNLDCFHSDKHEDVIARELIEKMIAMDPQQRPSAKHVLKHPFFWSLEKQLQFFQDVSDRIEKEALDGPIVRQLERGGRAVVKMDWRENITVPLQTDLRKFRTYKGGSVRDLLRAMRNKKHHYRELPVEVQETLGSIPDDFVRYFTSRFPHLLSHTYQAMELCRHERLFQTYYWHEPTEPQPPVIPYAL

C=CCOC(=O)N1CCc2c(c(=O)oc3c(C=O)c(O)ccc23)C1
inhibition [1]: Active

COc1cc2c3c(c(=O)oc2c(/C=N/NC(C)=O)c1O)CN(C)CC3
growth inhibition (GI) (Homo sapiens [2]): inactive
inhibition [3]: Active
inhibition [4]: Active
Stability [5]: Unstable
growth inhibition (GI) (Homo sapiens [6]): Active

CN1CCc2c(c(=O)oc3c(C=O)c(O)ccc23)C1
inhibition [7]: inactive
Stability [8]: Stable
Stability [9]: Stable
growth inhibition (GI) (5TGM1 [10]): Active
inhibition [1]: Active
growth inhibition (GI) (5TGM1 [11]): Active

CN1CCc2c(c(=O)oc3c(C4OCCCO4)c(O)ccc23)C1
Drug metabolism [12]: Metabolite detected
Stability [8]: Stable
growth inhibition (GI) (Homo sapiens [2]): Active
growth inhibition (GI) (5TGM1 [10]): Active
inhibition [3]: Active
inhibition [4]: Active
growth inhibition (GI) (5TGM1 [11]): Active

O=Cc1c(O)ccc2c3c(c(=O)oc12)CNCC3
inhibition [7]: inactive
Stability [8]: Stable
Stability [9]: Stable
inhibition [1]: Active
growth inhibition (GI) (5TGM1 [11]): Active

COc1cc2c3c(c(=O)oc2c(C2OCCCO2)c1O)CNCC3
Stability [13]: Stable
inhibition [3]: Active

CN1CCc2c(c(=O)oc3c(/C=N/N4CCCCC4)c(O)ccc23)C1
Stability [8]: Unstable

CC1(C)COC(c2c(O)ccc3c4c(c(=O)oc23)CNCC4)OC1
inhibition [14]: Active
Stability [8]: Stable
degraded at 48 h, 10 µM [15]: 60%

O=c1oc2c(/C=N/N3CCCCC3)c(O)ccc2c2c1CNCC2
Stability [8]: Unstable

COc1cc2c3c(c(=O)oc2c(C2OCCCO2)c1O)CN(C)CC3
Drug metabolism [16]: 70%
Stability [13]: Stable
Drug metabolism [17]: 70%
growth inhibition (GI) (Homo sapiens [2]): Active
growth inhibition (GI) (5TGM1 [10]): Active
inhibition [3]: Active
inhibition [18]: inactive

O=c1oc2c(C3OCCCO3)c(O)ccc2c2c1CNCC2
inhibition [14]: Active
inhibition [3]: Active
growth inhibition (GI) (5TGM1 [11]): Active
degraded at 48 h, 10 µM [15]: 5.1%

CC(=O)N/N=C/c1c(O)ccc2c3c(c(=O)oc12)CN(C)CC3
Drug metabolism [12]: Metabolite detected
Stability [8]: Unstable
growth inhibition (GI) (Homo sapiens [2]): Active
inhibition [3]: Active
inhibition [4]: Active
inhibition [19]: Active

COc1cc2c3c(c(=O)oc2c(C2OCCCO2)c1OC(C)c1ccc(C(=O)OCC[Si](C)(C)C)cc1[N+](=O)[O-])CN(C)CC3 (stereo not given)
Drug metabolism [20]: Metabolite_Detected
fold change (FC) [21]: 75
inhibition [22]: Active
inhibition [18]: Active
Stability [23]: Stable
inhibition [24]: inactive
Stability [25]: Stable
